Measurements taken from patent publication US7053088B2, “Vanilloid receptor ligands and their use in treatments” (Amgen Inc., priority 2002, dated 2006).

| melting point | Compound |
| --- | --- |
| 193 to 196 °C | FC(F)(F)c1ccc(-c2cc(Nc3ccc(Cl)cc3)ncn2)cc1 [(4-chlorophenyl)-[6-(4-trifluoromethylphenyl)pyrimidin-4-yl]amine] |
| 238 to 239 °C | FC(F)(F)c1ccc(-c2cc(Nc3cccc4ncccc34)ncn2)cc1 [Example 74] |
| 262 to 263 °C | FC(F)(F)c1ccc(-c2cc(Nc3cnc4ccccc4c3)ncn2)cc1 [Example 50] |
| 211 to 213 °C | Nc1ccc2cccc(Nc3cc(-c4ccc(C(F)(F)F)cc4)ncn3)c2n1 [N^8-[6-(4-Trifluoromethylphenyl)pyrimidin-4-yl]quinoline-2,8-diamine] |

More lines, now with the values behind:

| Compound | melting point |
| --- | --- |
| FC(F)(F)c1ccc(-c2cc(Nc3ccc4[nH]ncc4c3)ncn2)cc1 [(1H-indazol-5-yl)-[6-(4-trifluoromethylphenyl)pyrimidin-4-yl]amine] | 224 to 226 °C |
| CC(C)(C)c1ccc(-c2cc(Nc3ccc4[nH]ccc4c3)ncn2)cc1 [Example 54] | 238 to 240 °C |
| FC(F)(F)c1ccc(-c2cc(Nc3ccc4ncsc4c3)nnc2-c2ccccc2)cc1 [benzothiazol-6-yl-[6-phenyl-5-(4-trifluoromethylphenyl)pyridazin-3-yl]amine] | 272 °C |
